# Paper PMC4874602 (ACS Infectious Diseases, 2016)
# Several values for one entry are separate records, joined by “and”; a condition that tells them apart may be missing. Equal values may be shown once. Read-outs that look alike come from different tables or passages of the source.
# What was measured:
# [1] = C3HeB/FeJ; for AUC168h: single 25 mg/kg oral dose of BDQ
# M. tuberculosis Erdman [2] = assay type: in vivo, Mycobacterium tuberculosis; settings: BALB/c, 4 weeks of treatment
# in vivo [3] = settings: BALB/c and C3HeB/FeJ, mouse, 25 mg/kg
# in vivo [4] = settings: BALB/c, mouse, po, 25 mg/kg; for Kp / Cmax / half-life / Tmax: single 25 mg/kg oral dose of BDQ; for half-life: t1/2, BALB/c
# in vivo [5] = settings: C3HeB/FeJ, mouse, po, 25 mg/kg; for Kp / Cmax / half-life / Tmax: single 25 mg/kg oral dose of BDQ; for half-life: t1/2, C3HeB/FeJ
# [6] = BALB/c, single 25 mg/kg oral dose of BDQ
# M. tuberculosis Erdman [7] = assay type: in vivo, Mycobacterium tuberculosis
# [8] = AUCUL/AUCplasma, uninvolved lung
# [9] = C3HeB/FeJ less-responsive subpopulation, BDQ 10 mg/kg
structure (smiles),measurement,setting,value
"COc1nc2ccc(Br)cc2cc1[C@@H](c1ccccc1)[C@@](O)(CCN(C)C)c1cccc2ccccc12 [BDQ, bedaquiline]",concentration in dissected caseum of type I granulomas (LC/MS/MS),"[1]; 8 h following a single 25 mg/kg dose of BDQ, preliminary",974.5 ng/g
same,AUC168h,[1]; lesion (type I),387.1 µg·h/g
same,AUC168h,[1]; uninvolved lung,653.9 µg·h/g
same,AUC168h,[1]; whole lung,739.42 µg·h/g
same,log10 CFU reduction in lungs,M. tuberculosis Erdman [2]; BDQ 10 mg/kg oral gavage,3.1 log10 CFU
same,log10 CFU reduction in lungs,M. tuberculosis Erdman [2]; BDQ 25 mg/kg oral gavage,4.1 log10 CFU
same,Tmax,in vivo [3],3 h
same,AUC(0-t),in vivo [4],33700 ng·h/mL
same,Kp,"in vivo [4]; AUCLes/AUCplasma, lesion (type III)",28.2
same,Kp,in vivo [4]; [8],28.4
same,Kp,"in vivo [4]; AUCWL/AUCplasma, whole lung",20.6
same,Cmax,"in vivo [4]; lesion (cellular non-necrotizing, type III)",31700 ng/g
same,Cmax,in vivo [4]; uninvolved lung,36000 ng/g
same,Cmax,in vivo [4]; whole lung,22100 ng/g
same,half-life,in vivo [4]; lesion (type III),85.5 h
same,half-life,in vivo [4]; uninvolved lung,67.4 h
same,half-life,in vivo [4]; whole lung,74.5 h
same,Tmax,in vivo [4]; lesion (type III),8 h
same,Tmax,in vivo [4]; whole lung,8 h
same,AUC(0-t),in vivo [5],35900 ng·h/mL
same,Kp,"in vivo [5]; AUCLes/AUCplasma, lesion (type I)",10.8
same,Kp,in vivo [5]; [8],18.2
same,Kp,"in vivo [5]; AUCWL/AUCplasma, whole lung",20.6
same,Cmax,"in vivo [5]; lesion (caseous necrotic granuloma, type I)",10100 ng/g
same,Cmax,in vivo [5]; plasma,2720 ng/mL
same,Cmax,in vivo [5]; uninvolved lung,23300 ng/g
same,Cmax,in vivo [5]; whole lung,22900 ng/g
same,half-life,in vivo [5]; lesion (type I),104 h
same,half-life,in vivo [5]; uninvolved lung,84.1 h
same,half-life,in vivo [5]; whole lung,130 h
same,Tmax,in vivo [5]; lesion (type I),8 h
same,Tmax,in vivo [5]; plasma,4 h
same,Tmax,in vivo [5]; uninvolved lung,8 h
same,Tmax,in vivo [5]; whole lung,8 h
same,AUC168h,"[6]; lesion (type III), 25 mg/kg",949 µg·h/g and 949.6 µg·h/g
same,AUC168h,[6]; uninvolved lung,956.6 µg·h/g
same,AUC168h,[6]; whole lung,694.0 µg·h/g
same,activity against the less-responsive subpopulation,M. tuberculosis Erdman [7]; [9],only bacteriostatic
same,rate of decrease in log10 CFU in the lungs between 4 and 8 weeks of treatment,M. tuberculosis Erdman [7]; [9],0.0129 log10 CFU/week
same,rate of decrease in log10 CFU in the lungs between 4 and 8 weeks of treatment,"M. tuberculosis Erdman [7]; C3HeB/FeJ responsive subpopulation, BDQ 10 mg/kg",0.4392 log10 CFU/week
same,rate of decrease in log10 CFU in the lungs between 4 and 8 weeks of treatment,"M. tuberculosis Erdman [7]; C3HeB/FeJ responsive subpopulation, BDQ 25 mg/kg",0.3606 log10 CFU/week
